Results: patent publication US12152017B2, “Ketoamide compound and preparation method, pharmaceutical composition, and use thereof” (Shanghai Institute of Materia Medica, Chinese Academy of …, priority 2018, dated 2024)
Values joined by “and” are separate entries in the source; they are usually repeats but may differ in a detail not shown here. Equal entries are not always repeated. Where two headings read alike, the source gives them in different places.

Assays:
[1] = Pharmacokinetic study in CD-1 mice (gavage, intravenous, intraperitoneal); format: in vivo; details: 20 mg/kg; for Cmax / Tmax / half-life / AUC(0-inf) / AUC(0-t) / MRT inf: male, CD-1, mouse, plasma; for AUC(0-inf): read-out: AUC INF_obs; for MRT inf: read-out: MRT INF_obs
Description: Nine CD-1 mice, male, weighing 18-22 g, were randomly divided into 3 groups with 3 mice in each group. The test compounds were administered by gavage, intravenously and intraperitoneally according to the following schemes.
Before the test, they were fasted for 12 hours and were allowed to drink water freely, and were fed uniformly 2 h after administration.
There were 3 animals at each time point.
The solution for gavage administration was formulated with DMSO/0.5% HPMC (5/95, v/v) into the final concentration. Intravenous and intraperitoneal administration were formulated with DMSO/PEG300/EtOH/NaCl (5/40/5/50, v/v/v). Retention samples of the dosing solution (50 μL of the drug solution was taken and mixed well with 50 μL of DMSO before and after the administration) for testing.
The drug was administered according to the above dosage, the time of administration were recorded, and 20 μL of blood was collected from the mouse femoral plexus at the above set time point and placed in a heparinized test tube and centrifuged immediately at 11000 rpm for 5 min. 10 μL of plasma was immediately and accurately drawn into a centrifuge tube pre-filled with 100 μL of PK-IS solution (prepared with methanol:acetonitrile (1:1, v/v)), mixed well, and frozen to store at −20° C. for testing.

[2] = tested on: MERS-CoV pseudovirus; assay: microbe, parasite or virus in culture; format: cell-based; details: Middle East respiratory syndrome-related coronavirus, Huh-7, read-out: MERS-CoV pseudovirus inhibitory activity IC50
[3] = i.p. (20 mg/Kg per Table 3), individual animal
[4] = ip, i.p. (20 mg/Kg per Table 3), Mean of 3 mice
[5] = ip, i.p. (20 mg/Kg per Table 3), Mean of 3 mice, read-out: AUC last (exposure for intraperitoneal injection)
[6] = ip, i.p. (20 mg/Kg per Table 3), individual animal
[7] = ip, i.p. (20 mg/Kg per Table 3), individual animal, read-out: AUC last
[8] = po, p.o. (gavage 20 mg/Kg per Table 3), Mean of 3 mice
[9] = po, p.o. (gavage 20 mg/Kg per Table 3), Mean of 3 mice, read-out: AUC last (oral exposure)
[10] = po, p.o. (gavage 20 mg/Kg per Table 3), individual animal
[11] = po, p.o. (gavage 20 mg/Kg per Table 3), individual animal, read-out: AUC last
[12] = p.o. (gavage 20 mg/Kg per Table 3), individual animal

| Structure (SMILES) | AUC INF_obs [1, 3] | AUC last [1, 3] | C max [1, 3] | MRT INF_obs [1, 3] | T1/2 [1, 3] | Cmax [1, 4] [ng/mL] | Tmax [1, 4] [min] | half-life [1, 4] [min] | AUC(0-inf) [1, 4] [ng·h/mL] | MRT inf [1, 4] [h] | Cmax [1, 6] [ng/mL] | half-life [1, 6] [min] | AUC(0-inf) [1, 6] [ng·h/mL] | AUC(0-t) [1, 7] [ng·h/mL] | MRT inf [1, 6] [h] | Cmax [1, 8] [ng/mL] | Tmax [1, 8] [min] | half-life [1, 8] [min] | AUC(0-inf) [1, 8] [ng·h/mL] | AUC(0-t) [1, 9] [ng·h/mL] | further results |
| --- | --- | --- | --- | --- | --- | --- | --- | --- | --- | --- | --- | --- | --- | --- | --- | --- | --- | --- | --- | --- | --- |
| Cc1cnc(C(=O)N[C@@H](CC2CCCCC2)C(=O)N[C@@H](C[C@@H]2CCNC2=O)C(=O)C(=O)NCc2ccccc2)o1 [Example A242, N—((S)-1-(((S)-4-(benzylamino)-3,4-dione-1-((S)-2-oxopyrrolidine-3-yl)but-2-yl)amino)-3-cyclohexyl-1-oxopropan-2-yl)-5-methyloxazole-2-carboxamide] | 5808 ng·h/mL and 6750 ng·h/mL | 5779 ng·h/mL and 6628 ng·h/mL | 4739 ng/mL and 5334 ng/mL | 1.85 h and 2.45 h | 4.37 h and 6.75 h | 5490 | 15 | 319 | 6960 | 2.07 | 6400 | 291 | 8320 | 8260 | 1.92 | 409 | 15 | 271 | 493 | 488 | AUC(0-t) [1, 5]: 6890 ng·h/mL; Tmax [1, 6]: 15 min; MRT inf [1, 8]: 2.56 h; Tmax [1, 10]: 15 min; half-life [1, 10]: 240 min; AUC(0-inf) [1, 10]: 436 ng·h/mL; AUC(0-t) [1, 11]: 434 ng·h/mL; MRT inf [1, 10]: 2.13 h; AUC INF_obs [1, 12]: 413 ng·h/mL and 629 ng·h/mL; AUC last [1, 12]: 409 ng·h/mL and 622 ng·h/mL; C max [1, 12]: 499 ng/mL and 247 ng/mL and 482 ng/mL; MRT INF_obs [1, 12]: 2.84 h and 2.71 h; T1/2 [1, 12]: 4.63 h and 4.91 h; IC50 [2]: 2.2 ± 0.8 nM |
| O=C(NCc1ccccc1)C(=O)[C@H](C[C@@H]1CCNC1=O)NC(=O)[C@H](CC1CCCCC1)NC(=O)c1ccc2ccccc2n1 [Example A42, N—((S)-1-(((S)-4-(benzylamino)-3,4-dione-1-((S)-2-oxopyrrolidine-3-yl)but-2-yl)amino)-3-cyclohexyl-1-oxopropan-2-yl)-quinoline-2-carboxamide] | 10647 ng·h/mL and 11768 ng·h/mL | 10576 ng·h/mL and 11340 ng·h/mL | 3959 ng/mL and 5038 ng/mL | 3.41 h and 4.99 h | 3.67 h and 6.20 h | 4280 | 15 | 328 | 12000 | 4.93 | 3840 | 391 | 13700 | 13000 | 6.38 | 858 | 15 | 349 | 750 | 742 | Tmax [1, 6]: 15 min; MRT inf [1, 8]: 2.3 h; Cmax [1, 10]: 1020 ng/mL; Tmax [1, 10]: 15 min; half-life [1, 10]: 251 min; AUC(0-inf) [1, 10]: 791 ng·h/mL; AUC(0-t) [1, 11]: 787 ng·h/mL; MRT inf [1, 10]: 1.98 h; AUC INF_obs [1, 12]: 953 ng·h/mL and 506 ng·h/mL; AUC last [1, 12]: 945 ng·h/mL and 494 ng·h/mL; C max [1, 12]: 966 ng/mL and 588 ng/mL; MRT INF_obs [1, 12]: 2.10 h and 2.83 h; T1/2 [1, 12]: 5.52 h and 7.73 h; IC50 [2]: 3.2 ± 0.6 nM |
| Cc1cnc(C(=O)N[C@@H](CC2CCCCC2)C(=O)N[C@@H](C[C@@H]2CCCNC2=O)C(=O)C(=O)NCc2ccccc2)o1 [Example A241] | 3524 ng·h/mL and 4121 ng·h/mL | 3514 ng·h/mL and 4100 ng·h/mL | 4206 ng/mL and 4836 ng/mL | 1.37 h and 1.50 h | 3.59 h and 4.72 h | 4660 | 10.8 | 262 | 4180 | 1.44 | 4930 | 287 | 4900 | 4870 | 1.44 | 767 | 15 | 253 | 665 | 663 | T max [1, 3]: 3 min; AUC(0-t) [1, 5]: 4160 ng·h/mL; MRT inf [1, 8]: 1.82 h; Cmax [1, 10]: 707 ng/mL; Tmax [1, 10]: 15 min; half-life [1, 10]: 230 min; MRT inf [1, 10]: 2.12 h; AUC INF_obs [1, 12]: 469 ng·h/mL and 947 ng·h/mL and 579 ng·h/mL; AUC last [1, 12]: 467 ng·h/mL and 945 ng·h/mL and 576 ng·h/mL; C max [1, 12]: 942 ng/mL and 651 ng/mL; MRT INF_obs [1, 12]: 1.68 h and 1.64 h; T1/2 [1, 12]: 3.85 h and 4.96 h; IC50 [2]: 2.5 ± 1.3 nM |
